Reference: patent US20120184625A1, “METHODS AND COMPOSITIONS FOR CONTROLLING PESTS” (priority 2001, published 2012)

Assays:
[1] = system: Two spotted mite (TSM) Tetranychus urticae Koch; assay: TSM leaf disc bioassay, Potter spray tower; format: in vivo; parameters: LD50 and 95% CL: unit not given beside the values; conditions: for LD50 and 95% CL: in vivo
Method: Two spotted mite (TSM) Tetranychus urticae Koch [Acarina: Tetranychidae] were collected from a mass culture maintained at the University of Western Sydney's Hawkesbury Campus in Richmond, NSW, Australia. They were reared on potted French beans (Phaseolus vulgaris L [Fabales: Fabaceae] in a glasshouse maintained at 25±5° C., 65±5% RH and 14 h D:L photoperiod. Only young females were selected for bioassay.
From an E. cloeziana oil extract (containing 85% tasmanone), 1.1765 g was dissolved in 5 mL ethyl alcohol and distilled water containing 200 ppm Triton X-100™ was added to prepare a 1% stock solution. From this homogenised stock solution, further serial dilutions of 0.0125, 0.025, 0.05, 0.10, and 0.12% were prepared by mixing the required amount of stock solution in distilled water and Triton X-100 solution. Each treatment was conducted on 60-80 TSM, which were evenly distributed on four French bean leaf discs (25 mm diam) contained in 90 mm diam. petri dishes. The leaf discs were placed with their underside uppermost on moist absorbent cotton wool covered with muslin netting. Water was added to the dishes daily to prevent desiccation of the leaf discs. Five mL aliquots (unless otherwise stated) were applied to each petri dish with a Potter precision spray tower as described by Herron et al (1995). The average mass of solution applied to each dish was calculated to be 3.95 mg/cm^2. Mortality was recorded 24 h after treatment. Death was recognised by the absence of movement when the test organisms were mechanically stimulated. Data were analysed using SPSS for Windows™ Version 7. Probit analysis was carried out for dose-mortality data and heterogeneity of regressions was determined by the Pearson chi-squared characteristic.
In addition, TSM was treated with E. cloeziana oil extract in combination with paraffin oil. In particular, E. cloeziana oil extract at levels of 0.1, 0.2, 0.3, 0.4 and 0.5 g were weighed out and each was made up to a weight of 10.0 g with a formulated paraffin oil (BioPest®), which was then sonicated for 10 min. A 1.0% v/v of each blend was prepared by mixing 1.0 mL with distilled water in a 100.0 mL volumetric flask. TSM were transferred to the petri dish following the same standard method. Five-mL aliquots were applied to each petri dish and mortality was recorded 24 h after treatment. All blends of E. cloeziana oil extract with paraffin oil produced 100.0% mortality, compared with Biopest® alone which caused only 35.5±6.9 mortality.
The efficacy of purified β-triketones against TSM was investigated using the TSM bioassay described in Example 8.

[2] = system: greenhouse thrips (GHT), Heliothrips haemorrhoidalis Bouché; assay: Greenhouse thrips bioassay on lemon leaf discs, Potter spray tower; format: in vivo
Method: Adult parthenogenetic female greenhouse thrips (GHT), Heliothrips haemorrhoidalis Bouché (Thysanoptera: Thripidae) of similar age were obtained from a colony reared on orange fruits and maintained in an insectary at UWS Hawkesbury under conditions of 25±3° C., 65% RH and 16 h D:L photoperiod
The same experimental procedure used for TSM was repeated for GHT except that lemon leaf discs were used instead of French beans. The required number of adult thrips for each treatment was transferred with a fine brush to the underside of a lemon disc of the same diameter (6 cm) as the base of a petri dish. The lemon disc was mounted on agar with its adaxial side uppermost. Immediately after treatment the petri dish was covered with perforated plastic wrap. […]
The efficacy of purified β-triketones against GHT was investigated using the GHT bioassay described in Example 8.
All β-triketones except jensenone caused 100% mortality on GHT at a concentration of 0.3% when 5 mL aliquots were applied with a Potter spray tower.

SMILES: CC(=O)C1=C(O)C(C)CC(C)(C)C1=O (stereo not drawn) [Angustione, 1-acetyl-3,5,5-trimethylcyclohex-2,6-dione]
- LD50 and 95% CL [1]: 0.22 (0.21-0.24)

SMILES: CC(=O)C1=C(O)C(C)(C)C=C(C)C1=O [Dehydroangustione, 1-acetyl-3,5,5-trimethylcyclohex-3-en-2,6-dione]
- LD50 and 95% CL [1]: 0.36 (0.33-0.41)

SMILES: CC1(C)C(=O)C(CCc2ccccc2)C(=O)C(C)(C)C1=O [Grandiflorone, 1-(2-phenylethyl)-3,3,5,5-tetramethylcyclohexan-2,4,6-trione]
- LD50 and 95% CL [1]: 0.04

SMILES: CC(C)CC(=O)C1C(=O)C(C=O)C(=O)C(C=O)C1=O (stereo not drawn) [Jensenone]
- mortality ([2]; 72 h after application in the 0.4% treatment): 60.0%
- behavioural effects ([2]; all concentrations tested): Convulsion and lack of movement
- direct mortality within 24 h ([2]; all concentrations tested): did not cause direct mortality
- behavioural effect on treated TSM ([1]; TSM, 0.05-0.4%): to move normally and continued to convulse
- recovery of treated TSM ([1]; TSM, 0.05-0.4%): treatment. There was no recovery.
- time after treatment at which TSM commenced to die ([1]; TSM, 0.05-0.4%): until they commenced to die 72 h after
- direct mortality within 24 h ([1]; TSM, any concentration tested (0.05-0.4%)): No direct mortality occurred in any

SMILES: COC1=CC(=O)C(C(C)=O)C(=O)C1(C)C (stereo not drawn) [Platyphyllol, 6,6-dimethyl-2-acetyl-5-methoxycyclohex-4-ene-1,3-dione]
- LD50 and 95% CL [1]: 0.070

SMILES: COC1=C(C)C(=O)C(C(=O)C(C)C)C(=O)C1(C)C (stereo not drawn) [Tasmanone, 1-isobutroyl-4-methoxy-3,5,5-trimethylcyclohex-3-en-2,6-dione]
- LD50 and 95% CL [1]: 0.055
